# Assays:
# [1] = test system: Babesia bovis (Texas strain); assay: in vitro growth inhibition assay (SYBR Green I fluorescence), single drug and 1:1 combination; format: cell-based; conditions: Babesia bovis, in Bos taurus, 96 h, B. bovis in vitro culture, 4 days
# Description: (§1) A microaerophilic stationary-phase culture system was used to maintain Babesia parasite cultures for a long time. Briefly, B. caballi (USDA strain) was grown using equine red blood cells (RBCs) in GIT medium supplemented with 40% equine serum. Theileria equi (USDA strain) was grown in equine RBCs in Medium 199 (M199; Sigma-Aldrich, Tokyo) supplemented with 40% equine serum, and hypoxanthine (MP Biomedicals, Santa Ana, CA, USA) at a final concentration of 13.6 μg/ml was used as a vital supplement. Babesia bovis (Texas strain) and B. bigemina (Argentina strain) were grown in bovine RBCs in M199 medium supplemented with 40% bovine serum. Meanwhile, B. divergens (Germany strain) was grown in bovine RBCs in medium RPMI 1640 (Sigma-Aldrich, Tokyo) supplemented with 40% bovine serum. All media included 60 U/ml penicillin G, 60 μg/ml streptomycin and 0.15 μg/ml amphotericin B (Sigma-Aldrich, St. Louis, MO, USA) to prevent bacterial contamination. The cultures were incubated at 37 °C in a humidified chamber with an atmosphere of 5% CO2, 5% O2 and 90% N2. Babesia microti (Munich strain) was recovered from − 80 °C stock, intraperitoneally injected in two 8-week old female BALB/c mice (Clea Japan, Tokyo, Japan), and the parasitemia was monitored every 2 days. The mice were euthanized using an anesthesia system containing isoflurane after parasitemia reached approximately 30%, and blood was collected by cardiac puncture to initiate the in vivo experiment. The animal experiment was conducted in accordance with the Regulations for Animal Experiments of Obihiro University of Agriculture and Veterinary Medicine, Japan (animal experiment accession number: 290168).
# (§2) Assays were performed in accordance with the previously described protocol. Briefly, B. bovis, B. bigemina, B. divergens, B. caballi and T. equi cultures were harvested and adjusted to 1% parasitemia with fresh RBCs to start the inhibition assay. The assays were carried out using 96-well microtiter plates where only the 60 inner wells were used, while the peripheral wells were filled with sterile distillate water to reduce evaporation during incubation. In five 96-well plates, a volume of 2.5 µl each of B. bigemina- and B. bovis-iRBCs and 5 µl each of B. divergens-, B. caballi- and T. equi-iRBCs were added to each well in triplicate and mixed with a culture medium containing the drug concentrations to a total volume of 100 µl. Various concentrations of EA, β-CD EA, APSP EA, DA, CF and AQ were dissolved in a culture medium using two-fold dilution. Wells containing DMSO at a final concentration of 0.4% and iRBCs were used as a positive control, while wells with non-infected RBCs and culture medium were used as a negative control. Additionally, a drug combination assay was performed in parallel with the single drug assay at a constant ratio of 1:1, as described previously. […] The plates were incubated in a humidified incubator with 5% CO2, 5% O2 and 90% N2 for 4 days without changing the medium. On day 4, 100 µl of a lysis buffer containing 2 × SG1 was added to each well. The plates were wrapped with aluminum foil to avoid direct light exposure and incubated at room temperature. After 6 h, fluorescence values were measured using a fluorescence spectrophotometer (Fluoroskan Ascent; Thermo LabSystems, Oceanside, CA, USA) with excitation and emission wavelengths of 485 and 518 nm, respectively. The fluorescence data were subtracted from the negative control and used to calculate the IC50. To calculate the degree of association, the growth-inhibition values obtained were entered into CompuSyn software, based on the combination index (CI) values. […] The experiments were repeated three times.
# [2] = test system: Theileria equi (USDA strain); assay: as above; format: cell-based; conditions: Theileria equi, 96 h, T. equi in vitro culture, 4 days
# Description: as §1, §2
# [3] = test system: B. bigemina (Argentina strain); assay: as above; format: cell-based, Babesia bigemina; conditions: Babesia bigemina, 96 h, B. bigemina in vitro culture, 4 days
# Description: as §1
# (§3) Assays were performed in accordance with the previously described protocol. Briefly, B. bovis, B. bigemina, B. divergens, B. caballi and T. equi cultures were harvested and adjusted to 1% parasitemia with fresh RBCs to start the inhibition assay. The assays were carried out using 96-well microtiter plates where only the 60 inner wells were used, while the peripheral wells were filled with sterile distillate water to reduce evaporation during incubation. In five 96-well plates, a volume of 2.5 µl each of B. bigemina- and B. bovis-iRBCs and 5 µl each of B. divergens-, B. caballi- and T. equi-iRBCs were added to each well in triplicate and mixed with a culture medium containing the drug concentrations to a total volume of 100 µl. Various concentrations of EA, β-CD EA, APSP EA, DA, CF and AQ were dissolved in a culture medium using two-fold dilution. Wells containing DMSO at a final concentration of 0.4% and iRBCs were used as a positive control, while wells with non-infected RBCs and culture medium were used as a negative control. Additionally, a drug combination assay was performed in parallel with the single drug assay at a constant ratio of 1:1, as described previously. […] The plates were incubated in a humidified incubator with 5% CO2, 5% O2 and 90% N2 for 4 days without changing the medium. On day 4, 100 µl of a lysis buffer containing 2 × SG1 was added to each well. The plates were wrapped with aluminum foil to avoid direct light exposure and incubated at room temperature. After 6 h, fluorescence values were measured using a fluorescence spectrophotometer (Fluoroskan Ascent; Thermo LabSystems, Oceanside, CA, USA) with excitation and emission wavelengths of 485 and 518 nm, respectively. The fluorescence data were subtracted from the negative control and used to calculate the IC50. […]
# [4] = test system: B. divergens (Germany strain); assay: as above; format: cell-based, Babesia divergens; conditions: Babesia divergens, 96 h, B. divergens in vitro culture, 4 days
# Description: as §1, §3
# B. caballi (USDA strain) = assay: as above; format: cell-based, Babesia caballi; conditions: Babesia caballi, 96 h, B. caballi in vitro culture, 4 days
# Description: as §1, §3
# [5] = test system: Madin-Darby bovine kidney (MDBK) cell line; assay: cytotoxicity assay (CCK-8); format: cell-based; conditions: for EC50: Bos taurus, 24 h, MDBK cells, 24 h exposure, CCK-8
# Description: (§4) The MDBK cell line was maintained in 75 cm^2 culture flasks with Minimum Essential Medium Eagle (MEM; Gibco, Grand Island, NY, USA), while Dulbecco’s Modified Eagle’s Medium (DMEM; […] Each medium was supplemented with 10% fetal bovine serum, 0.5% penicillin/streptomycin (Gibco), and an additional 1% glutamine. Every 3 to 4 days, the medium was changed, and the cells were incubated until approximately 80% confluent. The cells were free from mycoplasma contamination after being checked by staining with 4,6-diamidino-2-phenylindole dihydrochloride (DAPI; Sigma-Aldrich, St. Louis). The cell detachment from the culture flask was done using TrypLE^TM Express (Gibco) after washing two times with Dulbecco’s phosphate-buffered saline (DPBS). Subsequently, viable cells were counted using a Neubauer Improved C-Chip (NanoEnTek Inc., Seoul, Korea) after staining with 0.4% trypan blue solution. The drug-exposure viability assay was performed in accordance with the recommendation for the Cell Counting Kit-8 (CCK-8; Dojindo, Kumamoto, Japan). Briefly, in a 96-well plate, 100 µl of cells at a density of 5 × 10^4 cells/ml were seeded per well and allowed to attach to the plate for 24 h at 37 °C in a humidified incubator with 5% CO2. Ten microliters of drug diluted two-fold were added to each well to a final concentration of 0.781 to 800 µM in triplicate. Wells with only a culture medium were used as blanks, while wells containing cells and a medium with 0.5% DMSO were used as positive controls. Drug exposure lasted for 24 h. After 24 h, 10 µl of CCK-8 was added, and the plate was further incubated for 3 h. Absorbance was measured at 450 nm using a microplate reader.
# [6] = test system: human foreskin fibroblast (HFF) cell line; assay: cytotoxicity assay (CCK-8); format: cell-based; conditions: for EC50: Homo sapiens, HFF cells, 24 h exposure, CCK-8
# Description: as §4
# [7] = test system: mouse embryonic fibroblast (NIH/3T3) cell line; assay: cytotoxicity assay (CCK-8); format: cell-based; conditions: for EC50: Mus musculus, NIH3T3, NIH/3T3 cells, 24 h exposure, CCK-8
# Description: as §4
# [8] = test system: Babesia microti (Munich strain); assay: in vivo growth inhibition and drug combination assays in B. microti-infected BALB/c mice; conditions: second assay; for peak parasitemia level: 5 days, DDW control 58.3%
# Description: as §1
# In vivo growth inhibition assays of EA, β-CD EA and APSP EA were performed in B. microti-infected BALB/c mice in accordance with the previous protocol in two separate trials. […] The mice in groups 2–8 were intraperitoneally (i.p.) injected with 0.5 ml of inoculum (1 × 10^7 B. microti-iRBCs). Group 1 was left uninfected and untreated as a negative control. When the average parasitemia in all mice reached 1%, drug treatment was initiated for 5 consecutive days. […] DA at a concentration of 25 mg/kg body weight (BW) was administrated i.p. to the third group as a reference drug control.
# B. microti = assay: nested PCR detection of B. microti ss-rRNA gene in blood of treated mice; format: in vivo, Babesia microti; conditions: day 42; 20 mg/kg AQ
# [9] = EC50 NIH/3T3 / IC50 B. bigemina
# [10] = EC50 NIH/3T3 / IC50 B. divergens
SMILES,IC50 [1] [µM],IC50 [2] [µM],IC50 [3] [µM],IC50 [4] [µM],IC50 (B. caballi (USDA strain)) [µM],EC50 ([5]; MDBK) [µM],Selective indices MDBK ([5]; EC50 MDBK / IC50 B. bigemina),Selective indices MDBK ([5]; EC50 MDBK / IC50 B. caballi),Selective indices MDBK ([5]; EC50 MDBK / IC50 B. divergens),Selective indices HFF ([6]; EC50 HFF / IC50 B. bigemina),Selective indices HFF ([6]; EC50 HFF / IC50 B. caballi),Selective indices HFF ([6]; EC50 HFF / IC50 B. divergens),Selective indices HFF ([6]; EC50 HFF / IC50 T. equi),EC50 [6] [µM],"Selective indices NIH/3T3 [7, 9]",Selective indices NIH/3T3 ([7]; EC50 NIH/3T3 / IC50 B. caballi),"Selective indices NIH/3T3 [7, 10]",Selective indices NIH/3T3 ([7]; EC50 NIH/3T3 / IC50 T. equi),EC50 [7] [µM],further results
"O=C1C(O)=C([C@H]2CC[C@H](c3ccc(Cl)cc3)CC2)C(=O)c2ccccc21 [AQ, atovaquone]",0.039 ± 0.002,0.095 ± 0.0655,0.701 ± 0.04,0.038 ± 0.002,0.102 ± 0.0141,> 100,˃ 12.7,˃ 30.4,˃ 18.5,˃ 12.7,˃ 30.4,˃ 18.5,˃ 13.4,> 100,˃ 12.7,˃ 30.4,˃ 18.5,˃ 13.4,> 100,"Selective indices MDBK ([5]; EC50 MDBK / IC50 T. equi): ˃ 13.4; inhibition of cell viability ([5]; MDBK, 100 µM, separate assay): did not show any inhibition; inhibition of cell viability ([6]; HFF, 100 µM, separate assay): did not show any inhibition; inhibition of cell viability ([7]; NIH/3T3, 100 µM, separate assay): did not show any inhibition; day p.i. from which parasitemia was undetectable by microscopic examination ([8]; 20 mg/kg AQ): 15 day p.i.; peak parasitemia level ([8]; 20 mg/kg AQ oral): 4.3%; parasite DNA in blood (nPCR) (B. microti): not detected"
"CC(C)/N=c1\cc2n(-c3ccc(Cl)cc3)c3ccccc3nc-2cc1Nc1ccc(Cl)cc1 [CF, clofazimine]",8.24 ± 1.7,2.88 ± 0.9,5.73 ± 1.9,13.8 ± 4.3,7.95 ± 1.8,34 ± 3.4,6.1,4.4,2.5,˃ 17.5,˃ 12.6,˃ 7.2,˃ 34.7,> 100,˃ 17.5,˃ 12.6,˃ 7.2,˃ 34.7,> 100,Selective indices MDBK ([5]; EC50 MDBK / IC50 B. bovis): 4.2; Selective indices HFF ([6]; EC50 HFF / IC50 B. bovis): ˃ 12.1; Selective indices NIH/3T3 ([7]; EC50 NIH/3T3 / IC50 B. bovis): ˃ 12.1; day p.i. from which parasitemia was undetectable by microscopic examination ([8]; 20 mg/kg CF): 16 day p.i.; peak parasitemia level ([8]; 20 mg/kg CF oral): 4.9%

# — publication PMC6537213, “Ellagic acid microspheres restrict the growth of Babesia and Theileria in vitro and Babesia microti in vivo” (Parasites & Vectors, 2019)
